{
  "source": "patent US11230538B2",
  "about": "“Herbicides” (SYNGENTA PARTICIPATIONS AG, priority 2016, dated 2022)",
  "assay_type_in_all_cases": "in vivo",
  "key": {"[1]": {"system": "Amaranthus retroflexus (AMARE)", "assay": "B1 Pre-emergence herbicidal activity", "design": "key: 5=total damage to plant; 0=no damage to plant", "conditions": "pre-emergence application, Rate 1000 g/ha, evaluated after 13 days, Test 1b", "outline": "(§1)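 Pots of sown seeds were sprayed one day after sowing, pre-emergence, with compound in acetone/water (50:50) containing 0.5% Tween 20. Plants were grown in a glasshouse at 24/16 °C day/night, 14 h light and 65% humidity. Damage was scored after 13 days on a 0 (none) to 5 (total) scale.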"}, "Zea Mays (ZEAMX) [2]": {"system": "Zea Mays (ZEAMX)", "assay": "B1 Pre-emergence herbicidal activity", "design": "key: 5=total damage to plant; 0=no damage to plant", "conditions": "pre-emergence application, Rate 1000 g/ha, evaluated after 13 days, Test 1b", "outline": "as §1"}, "[3]": {"system": "Echinochloa crus-galli (ECHCG)", "assay": "B1 Pre-emergence herbicidal activity", "conditions": "pre-emergence application, Rate 1000 g/ha, evaluated after 13 days, Test 1b", "outline": "as §1"}, "Lolium perenne (LOLPE) [4]": {"system": "Lolium perenne (LOLPE)", "assay": "B1 Pre-emergence herbicidal activity", "conditions": "pre-emergence application, Rate 1000 g/ha, evaluated after 13 days, Test 1b", "outline": "as §1"}, "[5]": {"system": "Abutilon theophrasti (ABUTH)", "assay": "B1 Pre-emergence herbicidal activity", "conditions": "pre-emergence application, Rate 1000 g/ha, evaluated after 13 days, Test 1b", "description": "Seeds of a variety of test species were sown in standard soil in pots: Triticum aestivium (TRZAW), Avena fatua (AVEFA), Alopecurus myosuroides (ALOMY), Echinochloa crus-galli (ECHCG), Lolium perenne (LOLPE), Zea Mays (ZEAMX), Abutilon theophrasti (ABUTH), Amaranthus retroflexus (AMARE) and Setaria fabenr (SETFA). After cultivation for one day (pre-emergence) under controlled conditions in a glasshouse (at 24/16° C., day/night; 14 hours light; 65% humidity), the plants were sprayed with an aqueous spray solution derived from the formulation of the technical active ingredient in acetone I water (50:50) solution containing 0.5% Tween 20 (polyoxyethelyene sorbitan monolaurate, CAS RN 9005-64-5). The test plants were then grown in a glasshouse under controlled conditions (at 24/16° C., day/night; 14 hours light; 65% humidity) and watered twice daily. After 13 days, the test was evaluated (5=total damage to plant; 0=no damage to plant)."}, "Setaria fabenr (SETFA)": {"system": "Setaria fabenr (SETFA)", "assay": "B1 Pre-emergence herbicidal activity", "conditions": "pre-emergence application, Rate 1000 g/ha, evaluated after 13 days, Test 1b", "outline": "as §1"}, "[6]": {"system": "Abutilon theophrasti (ABUTH)", "assay": "B2 Post-emergence herbicidal activity", "conditions": "post-emergence application, Rate 1000 g/ha, evaluated after 13 days, Test 2b", "outline": "(§2)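 Plants grown 8 days in a glasshouse (24/16° C day/night, 14 h light, 65% humidity) were sprayed post-emergence with active ingredient formulated in acetone/water (50:50) containing 0.5% Tween 20. Damage was scored after 13 days on a 0–5 scale (5 = total damage).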"}, "[7]": {"system": "Amaranthus retroflexus (AMARE)", "assay": "B2 Post-emergence herbicidal activity", "conditions": "post-emergence application, Rate 1000 g/ha, evaluated after 13 days, Test 2b", "outline": "as §2"}, "[8]": {"system": "Echinochloa crus-galli (ECHCG)", "assay": "B2 Post-emergence herbicidal activity", "conditions": "post-emergence application, Rate 1000 g/ha, evaluated after 13 days, Test 2b", "outline": "as §2"}, "Lolium perenne (LOLPE) [9]": {"system": "Lolium perenne (LOLPE)", "assay": "B2 Post-emergence herbicidal activity", "conditions": "post-emergence application, Rate 1000 g/ha, evaluated after 13 days, Test 2b", "outline": "as §2"}, "Setaria fabenri (SETFA)": {"system": "Setaria fabenri (SETFA)", "assay": "B2 Post-emergence herbicidal activity", "design": "key: 5=total damage to plant; 0=no damage to plant", "conditions": "post-emergence application, Rate 1000 g/ha, evaluated after 13 days, Test 2b", "outline": "as §2"}, "Zea Mays (ZEAMX) [10]": {"system": "Zea Mays (ZEAMX)", "assay": "B2 Post-emergence herbicidal activity", "design": "key: 5=total damage to plant; 0=no damage to plant", "conditions": "post-emergence application, Rate 1000 g/ha, evaluated after 13 days, Test 2b", "outline": "as §2"}},
  "data": [
    {"molecule": "CC(=O)Nc1ccc(-c2cncc(F)c2)nc1C(F)(F)F", "note": "[Compound C9, N-[6-(5-fluoro-3-pyridyl)-2-(trifluoromethyl)-3-pyridyl]acetamide]", "values": [
      {"measurement": "AMARE damage score (0-5)", "setting": "[1]", "value": 2},
      {"measurement": "ZEAMX damage score (0-5)", "setting": "Zea Mays (ZEAMX) [2]", "value": 5},
      {"measurement": "ECHCG damage score (0-5)", "setting": "[3]", "value": 3},
      {"measurement": "LOLPE damage score (0-5)", "setting": "Lolium perenne (LOLPE) [4]", "value": 2},
      {"measurement": "ABUTH damage score (0-5)", "setting": "[5]", "value": 1},
      {"measurement": "SETFA damage score (0-5)", "setting": "Setaria fabenr (SETFA)", "value": 4},
      {"measurement": "ABUTH damage score (0-5)", "setting": "[6]", "value": 2},
      {"measurement": "AMARE damage score (0-5)", "setting": "[7]", "value": 2},
      {"measurement": "ECHCG damage score (0-5)", "setting": "[8]", "value": 4},
      {"measurement": "LOLPE damage score (0-5)", "setting": "Lolium perenne (LOLPE) [9]", "value": 3},
      {"measurement": "SETFA damage score (0-5)", "setting": "Setaria fabenri (SETFA)", "value": 5},
      {"measurement": "ZEAMX damage score (0-5)", "setting": "Zea Mays (ZEAMX) [10]", "value": 5}
    ]},
    {"molecule": "CC(C)C(=O)Nc1ccc(-c2cncc(F)c2)nc1C(F)(F)F", "note": "[Compound C10, N-[6-(5-fluoro-3-pyridyl)-2-(trifluoromethyl)-3-pyridyl]-2-methyl-propanamide]", "values": [
      {"measurement": "AMARE damage score (0-5)", "setting": "[1]", "value": 0},
      {"measurement": "ZEAMX damage score (0-5)", "setting": "Zea Mays (ZEAMX) [2]", "value": 5},
      {"measurement": "ECHCG damage score (0-5)", "setting": "[3]", "value": 4},
      {"measurement": "LOLPE damage score (0-5)", "setting": "Lolium perenne (LOLPE) [4]", "value": 2},
      {"measurement": "ABUTH damage score (0-5)", "setting": "[5]", "value": 1},
      {"measurement": "SETFA damage score (0-5)", "setting": "Setaria fabenr (SETFA)", "value": 4},
      {"measurement": "ABUTH damage score (0-5)", "setting": "[6]", "value": 1},
      {"measurement": "AMARE damage score (0-5)", "setting": "[7]", "value": 1},
      {"measurement": "ECHCG damage score (0-5)", "setting": "[8]", "value": 4},
      {"measurement": "LOLPE damage score (0-5)", "setting": "Lolium perenne (LOLPE) [9]", "value": 3},
      {"measurement": "SETFA damage score (0-5)", "setting": "Setaria fabenri (SETFA)", "value": 4},
      {"measurement": "ZEAMX damage score (0-5)", "setting": "Zea Mays (ZEAMX) [10]", "value": 5}
    ]}
  ]
}
